Experimental data published in ChEMBL document CHEMBL1150747, “Isolation of deoxyshikonin, an antidermatophytic principle from Lithospermum erythrorhizon cell cultures” (1988).
Converted amounts (≈) assume the structure as drawn. The source made the active and inactive calls. No cut-off for these calls is given here.

Legend:
Staphylococcus aureus = experiment: Antimicrobial activity against Staphylococcus aureus 209P IFO 12732 after 24 hrs by agar dilution streak method; format: functional; details: 209P IFO 12732, 24 h
Saccharomyces = experiment: Antimicrobial activity against Saccharomyces sake IFO 0305 after 7 days by agar dilution streak method; format: functional; details: IFO 0305, 168 h
Micrococcus luteus = experiment: Antimicrobial activity against Micrococcus luteus IFO 12708 after 24 hrs by agar dilution streak method; format: functional; details: IFO 12708, 24 h
Kocuria rosea = experiment: Antimicrobial activity against Micrococcus roseus IFO 3764 after 24 hrs by agar dilution streak method; format: functional; details: IFO 3764, 24 h
Bacillus subtilis = experiment: Antimicrobial activity against Bacillus subtilis PCI 219 IFO 3513 after 24 hrs by agar dilution streak method; format: functional; details: PCI 219 IFO 3513, 24 h
[1] = system: Meyerozyma guilliermondii; experiment: Antimicrobial activity against Candida guilliermondii IFO 0454 at 200 ug/mL after 7 days by paper disk method; format: functional, organism-based
Cyberlindnera jadinii = experiment: Antimicrobial activity against Candida utilis […] at 200 ug/mL after 7 days by paper disk method; format: functional, organism-based
[2] = system: Trichophyton mentagrophytes; experiment: Antimicrobial activity against Trichophyton mentagrophytes IFO 5809 after 7 days by agar dilution streak method; format: functional; details: IFO 5809, 168 h
Candida tropicalis = experiment: Antimicrobial activity against Candida tropicalis IFO 0006 at 200 ug/mL after 7 days by paper disk method; format: functional, organism-based
Pseudomonas aeruginosa = experiment: Antimicrobial activity against Pseudomonas aeruginosa IFO 12689 at 200 ug/mL after 24 hrs by paper disk method; format: functional, organism-based
Nannizzia gypsea = experiment: Antimicrobial activity against Microsporum gypseum IFO 8307 after 7 days by agar dilution streak method; format: functional; details: IFO 8307, 168 h
Trichophyton rubrum = experiment: Antimicrobial activity against Trichophyton rubrum IFO 5808 after 7 days by agar dilution streak method; format: functional; details: IFO 5808, 168 h
Epidermophyton floccosum = experiment: Antimicrobial activity against Epidermophyton floccosum IFO 9045 after 7 days by agar dilution streak method; format: functional; details: IFO 9045, 168 h
Pichia norvegensis = experiment: Antimicrobial activity against Candida mycoderma IFO 0162 at 200 ug/mL after 7 days by paper disk method; format: functional, organism-based
[3] = system: Trichophyton tonsurans var. sulfureum; experiment: Antimicrobial activity against Trichophyton tonsurans var. sulfureum IFO 5945 after 7 days by agar dilution streak method; format: functional; details: IFO 5945, 168 h
Escherichia coli = experiment: Antimicrobial activity against Escherichia coli NIHJ IFO 12734 at 200 ug/mL after 24 hrs by paper disk method; format: functional, organism-based
Serratia marcescens = experiment: Antimicrobial activity against Serratia marcescens IFO 12648 at 200 ug/mL after 24 hrs by paper disk method; format: functional, organism-based
Candida albicans = experiment: Antimicrobial activity against Candida albicans IFO 0197 at 200 ug/mL after 7 days by paper disk method; format: functional, organism-based
[4] = system: Trichophyton mentagrophytes; experiment: Fungistatic activity against Trichophyton mentagrophytes IFO 5809 at 100 ug/mL after 7 days by liquid dilution method; format: functional, organism-based

For `O=C(N[C@H](CO)[C@H](O)c1ccc([N+](=O)[O-])cc1)C(Cl)Cl` [CHLORAMPHENICOL], the MIC (Staphylococcus aureus) was 12.5 µg/mL (≈ 38.7 µM), the MIC (Saccharomyces) was over 200 µg/mL and the MIC (Micrococcus luteus) was 6.2 µg/mL (≈ 19.2 µM). For the same molecule, the MIC (Kocuria rosea) was 25 µg/mL (≈ 77.4 µM) and the MIC (Bacillus subtilis) was 6.2 µg/mL (≈ 19.2 µM).
`CC(C)=CCCC1=CC(=O)c2c(O)ccc(O)c2C1=O` [DEOXYSHIKONIN] was tested, and the Activity [1] was “inactive”, the MIC (Staphylococcus aureus) was 200 µg/mL (≈ 734 µM) and the MIC (Saccharomyces) was 6.2 µg/mL (≈ 22.8 µM). The Activity (Cyberlindnera jadinii) was “inactive”, the MIC [2] was 12.5 µg/mL (≈ 45.9 µM) and the Activity (Candida tropicalis) was “inactive”. The Activity (Pseudomonas aeruginosa) was “inactive”, the MIC (Micrococcus luteus) was 50 µg/mL (≈ 184 µM) and the MIC (Nannizzia gypsea) was 6.2 µg/mL (≈ 22.8 µM). For the same molecule, the MIC (Trichophyton rubrum) was 25 µg/mL (≈ 91.8 µM), the MIC (Epidermophyton floccosum) was 6.2 µg/mL (≈ 22.8 µM) and the Activity (Pichia norvegensis) was “inactive”. For the same molecule, the MIC [3] was 12.5 µg/mL (≈ 45.9 µM), the MIC (Kocuria rosea) was 100 µg/mL (≈ 367 µM) and the Activity (Escherichia coli) was “inactive”. The Activity (Serratia marcescens) was “inactive”, the Activity (Candida albicans) was “inactive” and the MIC (Bacillus subtilis) was 200 µg/mL (≈ 734 µM). The Activity [4] was “inactive”.
In the case of `COC1=CC(=O)C[C@@H](C)[C@]12Oc1c(Cl)c(OC)cc(OC)c1C2=O` [GRISEOFULVIN], the MIC [2] was 3.1 µg/mL (≈ 8.79 µM), the MIC (Nannizzia gypsea) was 1.5 µg/mL (≈ 4.25 µM) and the MIC (Trichophyton rubrum) was 3.1 µg/mL (≈ 8.79 µM). The MIC (Epidermophyton floccosum) was 1.5 µg/mL (≈ 4.25 µM) and the MIC [3] was 3.1 µg/mL (≈ 8.79 µM).
With `CC(C)=CC[C@@H](O)C1=CC(=O)c2c(O)ccc(O)c2C1=O` [SHIKONIN] the Activity [1] was “inactive”, the MIC (Staphylococcus aureus) was over 200 µg/mL and the MIC (Saccharomyces) was 3.1 µg/mL (≈ 10.8 µM). The Activity (Cyberlindnera jadinii) was “inactive”, the MIC [2] was 25 µg/mL (≈ 86.7 µM) and the Activity (Candida tropicalis) was “inactive”. For the same molecule, the Activity (Pseudomonas aeruginosa) was “inactive”, the MIC (Micrococcus luteus) was 100 µg/mL (≈ 347 µM) and the MIC (Nannizzia gypsea) was 12.5 µg/mL (≈ 43.4 µM). The MIC (Trichophyton rubrum) was 25 µg/mL (≈ 86.7 µM), the MIC (Epidermophyton floccosum) was 6.2 µg/mL (≈ 21.5 µM) and the Activity (Pichia norvegensis) was “inactive”. The MIC [3] was 25 µg/mL (≈ 86.7 µM), the MIC (Kocuria rosea) was 200 µg/mL (≈ 694 µM) and the Activity (Escherichia coli) was “inactive”. The Activity (Serratia marcescens) was “inactive”, the Activity (Candida albicans) was “inactive” and the MIC (Bacillus subtilis) was over 200 µg/mL.
